According to EP3574917A1, “ANTI-CANCER AGENT, METHOD FOR SCREENING FOR ANTI-CANCER AGENT, KIT FOR DETERMINATION OF EFFICACY ON CANCER, AND METHOD FOR DETERMINING EFFICACY ON CANCER” (University of Miyazaki, priority 2017, dated 2018):

What was measured:
Assay in all cases: cellular proliferative potential (cell counting kit-8)
Type in all cases: cell-based
MOLT4 = details: MOLT4, without the decreased expression of NDRG2, AdOX added at start of culture
Experimental: (§1) In the following Examples, HTLV-1-uninfected T-cell lymphocytic acute leukemia T-ALL (Jurkat and MOLT4), an HTLV-1-infected cell line (HUT102), an ATLL cell line (KOB), an osteosarcoma cell line (U2OS), and a uterine cancer cell line (HeLa) were used as cell lines. The cell lines described above were cultured in a RPM11640 or DMEM culture solution, to which 10% fetal bovine serum (FBS) supplemented or unsupplemented with IL2 (50 U/mL) was added, under 5% carbon dioxide at 37°C.
(§2) For each established cell line, 2 ×10^3 cells were cultured on a 96-well plate, and cell counting kit-8 (manufactured by DOJINDO CO., LTD) was added at a predetermined time. The number of cells was quantified based on an absorbance of 450 nm or 490 nm, to evaluate cellular proliferative potential.
(§3) In addition to HUT102 and KOB, Jurkat and MOLT4 were cultured. At the time of the start of the culture, AdOX (manufactured by Sigma-Aldrich Co. LLC) as a PRMT5 inhibitor was added to each culture medium. Like the Examples 2 described above, cellular proliferative potential was evaluated.

KOB = KOB (NDRG2 hardly expressed), AdOX added to culture medium at start of culture, over time
Experimental: as §1, §2, §3

Jurkat = details: without the decreased expression of NDRG2, AdOX added at start of culture
Experimental: as §1, §2, §3

HUT102 = HUT102 (NDRG2 hardly expressed), AdOX added to culture medium at start of culture, over time
Experimental: as §1, §2, §3

U2OS = U2OS (NDRG2 hardly expressed), in the presence of AdOX, over time
Experimental: as §1, §2
(§4) In the cell lines of a solid cancer, the influence of the decreased expression of a PRMT5 gene was also evaluated in a manner similar to the manner of Example 2. The cellular proliferative potential of the parent lines, shluc cell lines, shPRMT5-3 cell lines, and shPRMT5-4 cell lines of U2OS and HeLa, and an influence on the cellular proliferative potential of a PRMT inhibitor were evaluated.

HeLa = HeLa (NDRG2 hardly expressed), in the presence of AdOX, over time
Experimental: as §1, §2, §4

SMILES: Nc1ncnc2c1ncn2[C@@H](C=O)O[C@@H](C=O)CO [AdOX, adenosine-2',3'-dialdehyde]
- suppression of cell proliferation (MOLT4): not observed
- suppression of cell proliferation (KOB): exhibited the suppression of cell proliferation in concentration-dependent manners
- suppression of cell proliferation (Jurkat): not observed
- suppression of cell proliferation (HUT102): exhibited the suppression of cell proliferation in concentration-dependent manners
- suppression of cell proliferation (U2OS): suppressed cell proliferation in a concentration-dependent manner
- suppression of cell proliferation (HeLa): suppressed cell proliferation in a concentration-dependent manner
